Laboratory results reported in US8455474B2, “Method for treating tuberculosis” (Mackay Memorial Hospital, priority 2011, dated 2013).

What was measured:
[1] = tested on: Mycobacterium tuberculosis; experiment: Killing kinetics in vitro (7H9 broth OD600, CFU on 7H11 agar); type: cell-based
Procedure: Mycobacterium tuberculosis strains were obtained from the culture collection of the Mycobacteriology Laboratory, Mackay Memorial Hospital, Taipei, Taiwan. The organisms were cultured on Lowenstein-Jensen medium slant at 37° C. in a 10% CO2 humidified atmosphere. In mid-log phase, the colonies were harvested and resuspended with PBS. The turbidity of suspension was adjusted to a McFarland 0.5 standard, containing approximately 1×10^8 bacteria/ml.
Strains were grown in 7H9 medium and the turbidity of suspension was adjusted to a McFarland 0.5 standard and used as inocula after ten-fold dilution in 7H9 medium with or without various concentrations of EZETIMIBE. The kinetics of bactericidal effect of EZETIMIBE was estimated by measuring the optical density at 600 nm at the indicated time points, followed by plating for colony formation unit (CFU) enumeration on 7H11 agar plates.

monocytes = experiment: Cholesterol uptake of monocytes (nile red staining, flow cytometry); type: cell-based; conditions: cholesterol supplement 10 μg/ml
Procedure: (§1) Peripheral blood mononuclear cells were isolated from whole blood by means of Ficoll-Paque gradient centrifugation. Monocytes were incubated with CD14 microbeads, after which the CD14-positive cells were separated out by a magnet. These cells were seeded in U-bottom 96-well plates at a density of 2×10^5 cells in a volume of 200 μl of PRMI-1640 medium with 10% FCS and cultured for 1 hour in the presence or absence of EZETIMIBE (resolved in alcohol). Next, 5×10^5 M. tuberculosis bacteria were added to each well, followed by incubation for 24 hours. Cell viability was tested by using trypan blue staining. In the post-treatment experiment, monocytes were infected with M. tuberculosis bacteria for 1 hour and then added with EZETIMIBE for another 24 hours. In the cholesterol supplement experiment, water soluble cholesterol (Sigma) was resolved in sterile deionized water and added into the culture medium with or without EZETIMIBE.
A stock solution of nile red (1 mg/ml) in acetone was prepared and stored at 4° C. and protected from light. The nile red solution was added to the cell preparation (final concentration: 1 μg/ml) for 10 minutes and excess dye was washed away with PBS. Nile red fluorescence was examined at two spectral settings, yellow-gold fluorescence (FL1 channel, excitation, 488 nm; emission, 530±30 nm) for cytoplasmic neutral lipids and red fluorescence (FL2 channel, excitation, 488 nm; emission, 585±21 nm) for polar lipids, consist of phospholipids, other amphipathic lipids, and strongly hydrophobic proteins of cell membranes as reported. Stained cells were evaluated by FACS Calibur flow cytometer (BD Bioscience). Analysis was performed using CellQuest software (BD Bioscience).
As shown in FIGS. 5A-B, monocytes were infected with M. tuberculosis bacteria followed by treatment with EZETIMIBE for 24 hours. Nile red staining was used to assess the intracellular lipid droplets by flow cytometry. Nile red fluorescence was examined at two spectral settings, yellow-gold fluorescence (FL1 channel, excitation, 488 nm; emission, 530±30 nm) for cytoplasmic neutral lipids, included triglyceride, cholesterol, cholesterol esters and free fatty acid, and red fluorescence (FL2 channel, excitation, 488 nm; emission, 585±21 nm) for polar lipids. Significant increase fluorescence intensity of FL1 channel not FL2 channel was observed following cholesterol supplement (10 μg/ml) in monocytes culture without infection, and EZETIMIBE (10 μg/ml and 20 μg/ml) can inhibit the uptake of cholesterol by reducing the relative fluorescence of FL1 channel from 1.5 to 1.2 and 1.3, respectively.

[2] = tested on: M. tuberculosis internalization into monocytes; experiment: Internalization of M. tuberculosis by monocytes (flow cytometry); type: cell-based, Mycobacterium tuberculosis
Procedure: as §1
Infected monocytes described above receiving either EZETIMIBE or control were washed with PBS to remove unbound bacteria and fixed with 4% formalin for 24 hours at 4° C. Then cells were permeabilized by using permeabilization buffer and stained with fluorescein isothiocyanate-conjugated anti-M. tuberculosis antibody for 1 hour at 4° C. The fluorescence intensity of intracellular M. tuberculosis was than analyzed by flow cytometry. Stained cells were evaluated by FACS Calibur flow cytometer (BD Bioscience). Analysis was performed using CellQuest software (BD Bioscience).
As shown in FIGS. 2A-2D, the experiments were performed to assess whether the treatment of EZETIMIBE affected M. tuberculosis internalization into monocytes, and the monocytes were pretreated with EZETIMIBE for 24 hours or 48 hours.

[3] = tested on: intracellular M. tuberculosis in monocytes; experiment: Intracellular survival of M. tuberculosis in monocytes (CFU assay); type: cell-based, Mycobacterium tuberculosis
[4] = tested on: intracellular M. tuberculosis in monocytes; experiment: Intracellular survival of M. tuberculosis in monocytes with cholesterol supplement (CFU assay); type: cell-based, Mycobacterium tuberculosis; conditions: post-treatment 24 hours
CD13 = biological target: T1, CD13 (Homo sapiens, UniProt P15144); experiment: CD13 expression on monocytes (antiCD13 antibody staining); type: cell-based; conditions: monocytes pretreated 24 or 48 hours, clones WM15 and WM47
T1 construct: whether the treatment of EZETIMIBE affected CD13 expression on monocytes; endogenous in cells; host or cells: monocytes
T1 sequence (P15144 whole entry): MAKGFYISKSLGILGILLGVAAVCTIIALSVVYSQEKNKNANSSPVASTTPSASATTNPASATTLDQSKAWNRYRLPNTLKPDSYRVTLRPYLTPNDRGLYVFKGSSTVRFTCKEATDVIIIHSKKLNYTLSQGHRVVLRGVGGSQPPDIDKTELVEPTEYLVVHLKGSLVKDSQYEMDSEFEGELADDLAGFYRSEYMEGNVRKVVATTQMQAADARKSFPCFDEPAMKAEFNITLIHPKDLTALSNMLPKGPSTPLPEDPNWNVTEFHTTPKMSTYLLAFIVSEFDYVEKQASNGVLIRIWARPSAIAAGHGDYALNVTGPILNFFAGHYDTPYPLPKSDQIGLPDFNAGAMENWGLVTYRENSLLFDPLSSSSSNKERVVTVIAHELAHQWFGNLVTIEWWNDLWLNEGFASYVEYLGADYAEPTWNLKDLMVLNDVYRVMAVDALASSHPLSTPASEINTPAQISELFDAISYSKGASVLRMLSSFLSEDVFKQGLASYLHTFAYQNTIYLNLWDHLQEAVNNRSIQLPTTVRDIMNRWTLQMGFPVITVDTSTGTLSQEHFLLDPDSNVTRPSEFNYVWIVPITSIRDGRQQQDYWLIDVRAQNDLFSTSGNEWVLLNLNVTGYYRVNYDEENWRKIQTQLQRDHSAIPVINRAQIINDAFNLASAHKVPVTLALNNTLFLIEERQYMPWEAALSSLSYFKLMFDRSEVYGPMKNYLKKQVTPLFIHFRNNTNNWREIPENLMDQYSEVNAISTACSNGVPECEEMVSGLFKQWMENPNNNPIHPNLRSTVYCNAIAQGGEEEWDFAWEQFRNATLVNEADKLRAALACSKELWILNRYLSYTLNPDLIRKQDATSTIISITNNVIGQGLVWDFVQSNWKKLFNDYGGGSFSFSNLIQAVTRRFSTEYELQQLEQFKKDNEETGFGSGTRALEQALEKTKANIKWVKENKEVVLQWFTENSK

Compound: O=C1[C@H](CC[C@H](O)c2ccc(F)cc2)[C@@H](c2ccc(O)cc2)N1c1ccc(F)cc1 [EZETIMIBE, (3R,4S)-1-(4-fluorophenyl)-3-[(3S)-3-(4-fluorophenyl)-3-hydroxypropyl]-4-(4-hydroxyphenyl)zetidin-2-one]
- colony-forming units (CFU) of Mycobacterium tuberculosis on 7H11 agar plate ([1]; 15 and 30 μg/ml for 72 hours, read at 3rd week (FIG. 1C)): significantly reduced
- M. tuberculosis survival in suspension with increasing amount of bacteria ([1]; FIG. 1B): inhibition on M. tuberculosis survival was found
- growth of Mycobacterium tuberculosis in 7H9 broth ([1]; increasing concentrations, 2nd and 3rd week (FIG. 1A)): inhibition effect on growth
- relative fluorescence of FL1 channel (nile red, neutral lipids) (monocytes; M. tuberculosis infected monocytes, 24 hours, EZETIMIBE 10 μg/ml, without drug 1.4): 0.9
- relative fluorescence of FL1 channel (nile red, neutral lipids) (monocytes; M. tuberculosis infected monocytes, 24 hours, EZETIMIBE 20 μg/ml, without drug 1.4): 1.0
- relative fluorescence of FL1 channel (nile red, neutral lipids) (monocytes; monocytes without infection, EZETIMIBE 10 μg/ml, without drug 1.5): 1.2
- relative fluorescence of FL1 channel (nile red, neutral lipids) (monocytes; monocytes without infection, EZETIMIBE 20 μg/ml, without drug 1.5): 1.3
- entry reduction of M. tuberculosis into monocytes ([2]; post-treatment of monocytes, 24 hours): up to 0.65%
- entry reduction of M. tuberculosis into monocytes ([2]; post-treatment of monocytes, 48 hours): ≤ 26.02%
- entry reduction of M. tuberculosis into monocytes ([2]; pre-treatment of monocytes, 48 hours): up to 18.28%
- CFU counts ([3]; post-treatment: infection 1 hour then 10 ng/ml for 24 hours, without drug 8320): 4090 per 10,000 cells
- CFU counts ([3]; post-treatment: infection 1 hour then 20 ng/ml for 24 hours, without drug 8320): 2858 per 10,000 cells
- CFU counts ([3]; pre-treatment 1 hour then infection 24 hours, 10 ng/ml, without drug 7358): 5880 per 10,000 cells
- CFU counts ([3]; pre-treatment 1 hour then infection 24 hours, 20 ng/ml, without drug 7358): 4000 per 10,000 cells
- CFU counts ([4]; EZETIMIBE 10 μg/ml, cholesterol supplement 10 μg/ml, without drug 10600): 7692 per 10,000 cells
- CFU counts ([4]; EZETIMIBE 10 μg/ml, cholesterol supplement 20 μg/ml): 12545 per 10,000 cells
- CFU counts ([4]; EZETIMIBE 20 μg/ml, cholesterol supplement 10 μg/ml, without drug 10600): 4800 per 10,000 cells
- CFU counts ([4]; EZETIMIBE 20 μg/ml, cholesterol supplement 20 μg/ml): 10333 per 10,000 cells
- CD13 expression on monocytes (CD13): down-regulation of CD13 expression
